# Biological target: T1, c-kit autophosphorylation (Phospho c-Kit Tyr721) in HMC 1.1 (exon 11/13) cells, V654A (Homo sapiens, UniProt P10721, V560G/V654A)
# T1 construct: endogenous in cells; host or cells: HMC 1.1 (exon 11/13) cells
# Assay: pKIT Meso Scale Discovery (MSD) assay, inhibition of autophosphorylation of KIT, HMC1.1_V654A
# Type: cell-based
# Details: Table 1, cell line not named for Table 1, b1056 names pKIT HMC1.1_V654A, read-out: Code (IC50 for inhibition of autophosphorylation of KIT, pKIT MSD assay)
# Text: In this MSD assay, specific capture antibodies for the analytes were coated in arrays in each well of a 96-well carbon electrode plate surface. The detection system used SULFO-TAG™ labels that emit light upon electrochemical stimulation initiated at the electrode surfaces of the […] and MULTI-SPOT® plates. The electrical stimulation was decoupled from the output signal, which was light and generated assays with minimal background. The goal of this assay was to assess the percent inhibition of autophosphorylation of c-kit in cells when treated with compounds of the disclosure in a dose-dependent manner.
# HMC1.1 cells were maintained in IMDM media supplemented with 20% Calf Serum with Iron and 100 units/mL Penicillin-Streptomycin and grown in a 37° C. humidified tissue culture incubator. HMC1.1 cells were passaged by 1:5 dilution into fresh IMDM media supplemented with 20% Calf Serum with Iron and 100 units/mL Penicillin-Streptomycin every 5-7 days and were discarded after 20 passages.
# Seeding was performed as follows: HMC cells were brought to 1×10^6 cells/mL in fresh phenol red free, serum-free, iron-free IDM media with Pen/Strep; cells were seeded/plated into respective U-bottom plate by dispensing 50 μL/well (50,000 cells) using the Multidrop, and covered and incubated cells at 37° C. in a humidified tissue culture incubator for 4 hours (starvation).
# Dosing was performed as follows: The compound mother plate was prepared by adding 16 μL of compound to 24 μL of DMSO to row A, odd-numbered columns of screen matrix plate. […] Intermediate plates were prepared in V-bottom plates by dispensing 98 μL of phenol red free, serum free IMDM media with Pen/Strep into all wells. 2 μL DMSO or 2 μL 10 mM staurosporine was added to appropriate control wells. At the end of four hours, the Bravo protocol 10 cpds vertical dose MSD 2 U-plates 96-well was used to: add 2 μL from the compound plate to the intermediate plate and dose cells with 7 μL from the intermediate plate. The cells were covered and incubated at 37° C. in a humidified tissue culture incubator for 90 min. The complete lysis buffer was prepared with AlphaLISA 5× Lysis Buffer supplemented with 1× protease inhibitor cocktail and kept on ice. The cells were pelleted by centrifuging plate at 2500×g for 5 min, 4° C. and media removed. Complete lysis buffer was added (14 μL/well). The cells were covered and shaken at 4° C. on a plate shaker at 600 rpm for 30 min and kept cold
# The MSD protocol was preformed as follows: Tris Wash Buffer (2L) was prepared by diluting 10× stock of Tris Wash Buffer to 1× in water. Blocking Solution was prepared by dissolving 600 mg Blocker A in 20 mL 1× Trish Wash Buffer (per plate). The Antibody Dilution Buffer was prepared by mixing 1 mL Blocking solution and 2 mL 1× Trish Wash Buffer (per plate) and kept on ice. Blocking Solution was added (150 μL/well) to each MSD plate using a multichannel repeater pipette. The plate was covered and incubated at room temperature on a plate shaker at 700 rpm for hr. The Bio Tek protocol RL-96w-wash-MSD_stacker_fromC was used to wash plates 3× with 150 μL/well. Cells were pelleted by centrifuging lysate plates at 2500×g for 5 mins. The Bravo protocol was used (transfer 25 ul supernatants from V-96 to assay plate) to transfer 25 μL sample lysate per well to each MSD plate. The plates were covered and incubated at room temperature on a plate shaker at 700 rpm for hr. The Bio Tek protocol RL-96w-wash-MSD_stacker_fromC was used to wash plates 3× with 150 μL/well. The Detection Antibody Solution was prepared by diluting the 60 μL of the 50× antibody stock in 2.94 mL of the Antibody Dilution Buffer (per plate) and kept on ice. 25 μL/well of detection antibody solution was added to each MSD plate. The plates were covered and incubated at room temperature on a plate shaker at 700 rpm for 1 hr. The Read Buffer was prepared by diluting 5 mL of 4× stock of Read Buffer to 1× in 15 mL water (per plate).
# T1 sequence (P10721 26-976 V560G/V654A): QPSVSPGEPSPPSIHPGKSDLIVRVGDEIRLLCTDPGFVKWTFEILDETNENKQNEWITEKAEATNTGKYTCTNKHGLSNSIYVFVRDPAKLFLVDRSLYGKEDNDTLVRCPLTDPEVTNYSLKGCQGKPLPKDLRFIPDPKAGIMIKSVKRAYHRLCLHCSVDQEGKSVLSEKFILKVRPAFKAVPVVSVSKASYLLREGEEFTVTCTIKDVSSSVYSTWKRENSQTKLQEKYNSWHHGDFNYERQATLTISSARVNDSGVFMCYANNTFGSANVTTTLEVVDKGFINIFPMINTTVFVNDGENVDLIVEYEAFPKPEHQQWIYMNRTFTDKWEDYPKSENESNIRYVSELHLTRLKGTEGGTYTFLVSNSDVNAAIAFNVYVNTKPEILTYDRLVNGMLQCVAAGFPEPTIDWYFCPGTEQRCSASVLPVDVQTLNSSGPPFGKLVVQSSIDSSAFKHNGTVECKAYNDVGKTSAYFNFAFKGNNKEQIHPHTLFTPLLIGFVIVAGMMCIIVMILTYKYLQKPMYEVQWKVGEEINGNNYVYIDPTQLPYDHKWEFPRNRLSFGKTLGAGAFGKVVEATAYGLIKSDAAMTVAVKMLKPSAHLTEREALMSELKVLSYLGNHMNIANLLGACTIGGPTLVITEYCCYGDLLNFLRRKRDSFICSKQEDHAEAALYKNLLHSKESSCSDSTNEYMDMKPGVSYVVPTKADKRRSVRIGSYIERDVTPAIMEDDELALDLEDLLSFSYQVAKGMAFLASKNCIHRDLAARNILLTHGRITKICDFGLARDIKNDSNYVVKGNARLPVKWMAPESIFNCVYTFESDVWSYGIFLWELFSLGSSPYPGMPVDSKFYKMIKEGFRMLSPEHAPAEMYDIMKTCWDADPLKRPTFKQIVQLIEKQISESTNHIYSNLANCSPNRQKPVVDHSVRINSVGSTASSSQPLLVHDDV
row,Compound,IC50 [nM]
1,"CNc1cc(Nc2cc(N)nc(C(F)F)n2)ncc1C(=O)NC1CC1 [Compound 24, 6-((6-amino-2-(difluoromethyl)pyrimidin-4-yl)amino)-N-cyclopropyl-4-(methylamino)nicotinamide]",< 10
2,"C[C@H](CF)Nc1cc(Nc2cc(N)nc(C(F)F)n2)ncc1C(=O)NC1CC1 [Compound 91, (R)-6-((6-amino-2-(difluoromethyl)pyrimidin-4-yl)amino)-N-cyclopropyl-4-((1-fluoropropan-2-yl)amino)nicotinamide]",< 10
3,"CNC(=O)c1cnc(Nc2cc(N)nc([C@H](C)F)n2)cc1NC1CC1 [Compound 15, (S)-6-((6-amino-2-(1-fluoroethyl)pyrimidin-4-yl)amino)-4-(cyclopropylamino)-N-methylnicotinamide]",10 to 40
4,"CNc1cc(Nc2cc(N)nc(C(F)F)n2)ncc1C(=O)NCc1ccccn1 [Compound 93, 6-((6-amino-2-(difluoromethyl)pyrimidin-4-yl)amino)-4-(methylamino)-N-(pyridin-2-ylmethyl)nicotinamide]",10 to 40
5,"CC(C)Oc1cc(Nc2cc(N)nc(CF)n2)ncc1-c1cnn(C)c1 [Compound 33, 2-(fluoromethyl)-N4-(4-isopropoxy-5-(1-methyl-1H-pyrazol-4-yl)pyridin-2-yl)pyrimidine-4,6-diamine]",< 10
6,"COc1cc(Nc2cc(N)nc(C(F)F)n2)ncc1-c1cnn([C@H]2CCOC2)c1 (single isomer, unassigned) [Compound 109, (S)-2-(difluoromethyl)-N4-(4-methoxy-5-(1-(tetrahydrofuran-3-yl)-1H-pyrazol-4-yl)pyridin-2-yl)pyrimidine-4,6-diamine or (R)-2-(difluoromethyl)-N4-(4-methoxy-5-(1-(tetrahydrofuran-3-yl)-1H-pyrazol-4-yl)pyridin-2-yl)pyrimidine-4,6-diamine]",< 10
7,COc1cc(Nc2cc(N)nc(C(F)F)n2)ncc1-c1cnn(C(C)C)c1 [Compound 56],< 10

# Other lines, results leading:
row,IC50 [nM],Compound
1,< 10,"CCNc1cc(Nc2cc(N)nc(C(F)F)n2)ncc1C(=O)NC12CC(CO)(C1)C2 [Compound 151, 6-((6-amino-2-(difluoromethyl)pyrimidin-4-yl)amino)-4-(ethylamino)-N-(3-(hydroxymethyl)bicyclo[1.1.1]pentan-1-yl)nicotinamide]"
2,10 to 40,"Cn1cc(-c2cnc(Nc3cc(N)nc(C(F)F)n3)cc2OCC2CC(O)C2)cn1 (stereo not shown) [Compound 145, 3-(((2-((6-amino-2-(difluoromethyl)pyrimidin-4-yl)amino)-5-(1-methyl-1H-pyrazol-4-yl)pyridin-4-yl)oxy)methyl)cyclobutan-1-ol]"
3,10 to 40,"Nc1cc(Nc2cc(OC3CC3)c(-c3cnn(C4CNC4)c3)cn2)nc(C(F)F)n1 [Compound 130, N4-(5-(1-(azetidin-3-yl)-1H-pyrazol-4-yl)-4-cyclopropoxypyridin-2-yl)-2-(difluoromethyl)pyrimidine-4,6-diamine]"
4,< 10,"COc1cc(Nc2cc(N)nc(C(F)F)n2)ncc1-c1cnn([C@@H]2CCOC2)c1 (single isomer, unassigned) [Compound 110, (R)-2-(difluoromethyl)-N4-(4-methoxy-5-(1-(tetrahydrofuran-3-yl)-1H-pyrazol-4-yl)pyridin-2-yl)pyrimidine-4,6-diamine or (S)-2-(difluoromethyl)-N4-(4-methoxy-5-(1-(tetrahydrofuran-3-yl)-1H-pyrazol-4-yl)pyridin-2-yl)pyrimidine-4,6-diamine]"
5,< 10,"CN(C)CCn1cc(-c2cnc(Nc3cc(N)nc(C(F)F)n3)cc2OC(F)(F)F)cn1 [Compound 194, 2-(difluoromethyl)-N4-(5-(1-(2-(dimethylamino)ethyl)-1H-pyrazol-4-yl)-4-(trifluoromethoxy)pyridin-2-yl)pyrimidine-4,6-diamine]"
6,< 10,"CN(C)CCn1cc(-c2cnc(Nc3cc(N)nc(C(F)F)n3)cc2OC2CC2)cn1 [Compound 171, N4-(4-cyclopropoxy-5-(1-(2-(dimethylamino)ethyl)-1H-pyrazol-4-yl)pyridin-2-yl)-2-(difluoromethyl)pyrimidine-4,6-diamine]"

# Reference: patent US20250270190A1, “KIT INHIBITORS” (BLUEPRINT MEDICINES CORPORATION, priority 2022, published 2025)
